In US10653658B2, “Biofilm inhibiting compositions enhancing weight gain in livestock” (Akeso Biomedical, Inc., priority 2015, dated 2020):

Legend:
Salmonella = Salmonella cfu/g of caeca at day 42 (Example 10); format: in vivo; conditions: in feed
Procedure: A study was performed to evaluate growth promotion and reduction of Campylobacter carriage using FeTyr in Ross 308 male broilers with 7 treatment groups. Each treatment group comprised eight replicates of 10 birds per pen (80 birds/treatment group), with 2 control groups and […]. All the test groups and both of the control groups were exposed at day 20 of the trial to dirty litter, which tested positive for Campylobacter. This method was used to provide a more natural method to Campylobacter challenge the birds. Thus there were two positive controls where each treatment group was challenged with Campylobacter, and five treatment groups that were all challenged with Campylobacter. The total number of birds used in the 7 treatment groups was 560.
At day 20, litter, which was naturally Campylobacter-contaminated, was tested to confirm the presence of Campylobacter, and then added (approximately 2 kg/pen) to the litter in all pens. At day 42, caecal samples were taken and tested for Campylobacter, E. coli and Salmonella enumeration.

Campylobacter = Campylobacter carriage in chickens, cfu/g of droppings and caeca at day 42 (Example 1); format: in vivo
Procedure: A study was performed to evaluate growth promotion and reduction of Campylobacter carriage using FeQ and FeTyr in Ross 308 male broilers with 7 treatment groups. Each treatment group comprised four replicates of 10 birds per pen (40 birds/treatment group and 4 pens of 10 birds/treatment group), with 2 control groups and 5 test groups. All the test groups and one of the control groups were exposed at day 20 of the trial to dirty litter, which tested positive for Campylobacter. This method was used to provide a more natural method to Campylobacter challenge the birds. Thus there was a positive control where one treatment group was challenged with Campylobacter and one negative control group where the birds were not challenged, and five treatment groups that were all challenged with Campylobacter. The total number of birds used in the 7 treatment groups was 280. Treatment group 1 was a negative control where birds just received the commercial feed, and were not challenged with dirty litter containing Campylobacter. Treatment group 2 was the positive control where the birds received the commercial feed, and were challenged with dirty litter containing Campylobacter at day 20. Treatment group 3 received 0.22 g/L of FeQ in their drinking water and 0.22 g/Kg FeQ in their feed during the entire trial, and was challenged with dirty litter containing Campylobacter at day 20. Treatment group 5 received 0.22 g/L of FeQ in their drinking water during the entire trial, and was challenged with dirty litter containing Campylobacter at day 20. Treatment group 6 received 0.22 g/kg FeQ in their feed during the entire trial, and was challenged with dirty litter containing Campylobacter at day 20. Treatment group 7 received 0.022 g/L FeQ in their drinking water during the entire trial, and was challenged with dirty litter containing Campylobacter at day 20. Treatment group 8 received 0.02 g/L FeTyr in their drinking water during the entire trial, and was challenged with dirty litter containing Campylobacter at day 20. The FeTyr was pre-dissolved in DMSO, and diluted to provide a solution of 0.02 g/L of FeTyr in water. (An additional treatment group 4 was terminated due to solubility issues.)
Prior to challenging the chickens with dirty litter containing Campylobacter at day 20, each pen was tested for Campylobacter using cloacal swabs. All pens tested negative for Campylobacter prior to the challenge. At day 20, litter, which was naturally Campylobacter-contaminated, was tested to confirm the presence of Campylobacter, and then added (approximately 2 kg/pen) to the litter in all pens except in pens for treatment group 1 (the negative control). At day 28, the pen litter was sampled to confirm the presence or absence of Campylobacter. At day 41 and 42, caecal samples were taken from 3 birds per pen (12 birds per treatment group) and tested for Campylobacter enumeration. At day 42, digesta, fecal samples, and caecal content was taken from all birds, and pooled per pen. Two birds per pen were also taken from treatment groups 1-3, euthanized, and blood samples taken. Samples were analyzed for blood chemistry, including analysis for alkaline phosphatase, aspartate amino transferase, alanine amino transferase, gamma-glutamyl transferase, lactate dehydrogenase, total protein, albumin, globulin, amylase and glucose.

O=C([O-])C1(O)CC(O)C(O)C(O)C1.O=C([O-])C1(O)CC(O)C(O)C(O)C1.O=C([O-])C1(O)CC(O)C(O)C(O)C1.[Fe+3] (centres unmarked) [FeQ, Ferric Quinate]
Salmonella cfu/g of caeca at day 42 (FIG. 15) (Salmonella): positive effect on reducing Campylobacter infection
Campylobacter cfu/g of bird droppings at day 42 (FIG. 3), low concentration (Campylobacter; 0.022 g/L FeQ in water, treatment group 7, considered likely experimental error): less of an effect than the other treatment groups
Campylobacter cfu/g of caeca samples at day 42 (FIG. 4), low concentration (Campylobacter; treatment group 7: 0.022 g/L FeQ in water): highly beneficial effect
Campylobacter cfu/g of caeca samples at day 42 compared with positive control (FIG. 4) (Campylobacter; treatment groups 3 and 5-8): positive effect on reducing Campylobacter infection
Campylobacter cfu/g of bird droppings at day 42 compared with positive control (FIG. 3) (Campylobacter; treatment groups 3 and 6-8): positive effect on reducing Campylobacter infection
